Here are results for 26 compounds from US8940768B2, “Antifungal triazole derivatives” (Daewoong Pharmaceutical Co., Ltd., priority 2010, dated 2015).

Each structure is given as a SMILES string. Where only a bound is given, the exact number is not on record here.

The subject of the assay is Candida albicans. As to the kind of experiment: in vitro antifungal activity (MIC80), Candida albicans. The assay is classed as cell-based. The note with it: 80% growth inhibition vs negative control, RPMI 1640, read 24 hrs after application, Table 2, read-out: Antifungal Activity (MIC80) Candida albicans. On the procedure: The compounds of the present invention were evaluated for inhibitory activity against yeast molds including Candida albicans, Candida glabrata, Candida krusei, Candida tropicalis, Candida parapsilosis, and Cryptococcus neoformans, and filamentous fungi including Aspergillus fumigatus, Trichophyton mentagrophytes (obtained from KCTC (Korean Collection for Type Cultures), and Trichophyton rubrum (obtained from KCCM (Korean Culture Center of Microorganisms). All the strains, but Trichophyton mentagrophytes and Trichophyton rubrum, were purchased from the ATCC (American Type Culture Collection).
Of the strains used in this test, Candida albicans, Candida glabrata, Candida krusei, Candida tropicalis, Candida parapsilosis, Trichophyton mentagrophytes and Trichophyton rubrum were inoculated into sabouraud dextrose agars (Difco, BD-0109), Cryptococcus neoformans into a yeast mold agar (YM agar, Difco, 271210), and Aspergillus fumigatus into a malt extract agar (Difco, 211220), before incubation at 35° C. for two to ten days.
From the agars on which the yeast molds were grown, single colonies were picked up, and each was sufficiently suspended in 5 mL of already prepared, 0.85% sterile saline. After correction of the absorbance to 0.108 at 530 nm, each of the suspensions was diluted to a ratio of 1:50 in an RPMI (Roswell park memorial institute) 1640 medium and then to a ratio of 1:20 to prepare an inoculum having a cell density of from 1.0×10^3 to 5.0×10^3CFU/mL. The cell density was adjusted into […]˜5.0×10^4 CFU/mL for Aspergillus fumigates and 0.4×10^4˜5.0×10^4 CFU/mL for both Trichophyton mentagrophytes and Trichophyton rubrum.
The antifungal agent samples were prepared by diluting the active compounds in an RPMI 1640 medium to a serial density of from 0.0156 to 32 μg/mL. In this context, dimethylsulfoxide (DMSO) was used as an excipient at a final concentration of 1% (v/v). The serial dilutions were aliquoted at a volume of 0.1 mL and applied to 0.1 mL of the aliquots of each inoculum, followed by incubation.
With the naked eyes, an observation was made of all of the yeast molds, but Cryptococcus neoformans 24 hrs after the application, Cryptococcus neoformans and Aspergillus fumigatus 48 hrs after the application, and Trichophyton mentagrophytes and Trichophyton rubrum five days after the application to examine whether the fungi grew or not. In addition, Alamarblue™ as used to determine the concentrations of the compounds of the present invention at which the growth of the microorganisms was 80% inhibited compared to that of the negative control. All experiments were performed in duplicate for each of the test concentration groups.
Regarding `C[C@@H](N1CCC(Oc2ccccc2F)CC1)[C@](O)(Cn1cncn1)c1ccc(F)cc1F` [Example 3, (2R,3R)-2-(2,4-difluorophenyl)-3-(4-(2-fluorophenoxy)piperidin-1-yl)-1-(1H-1,2,4-triazol-1-yl)butan-2-ol], the MIC80 was at most 0.015 µg/mL.

For the compound `C[C@@H](N1CCC(Oc2ccc(C#N)cc2)CC1)[C@](O)(Cn1cncn1)c1ccc(F)cc1F` [Example 16, 4-((1-((2R,3R)-3-(2,4-difluorophenyl)-3-hydroxy-4-(1H-1,2,4-triazol-1-yl)butan-2-yl)piperidin-4-yl)oxy)benzonitrile], the MIC80 is at most 0.015 µg/mL.

For the compound `C[C@@H](N1CCC(Oc2ccc(F)cn2)CC1)[C@](O)(Cn1cncn1)c1ccc(F)cc1F` [Example 25, (2R,3R)-2-(2,4-difluorophenyl)-3-(4-((5-fluoropyridin-2-yl)oxy)piperidin-1-yl)-1-(1H-1,2,4-triazol-1-yl)butan-2-ol], the MIC80 is at most 0.015 µg/mL.

Turning to `C[C@@H](N1CCC(Oc2ccc(Cl)cn2)CC1)[C@](O)(Cn1cncn1)c1ccc(F)cc1F` [Example 26, (2R,3R)-3-(4-((5-chloropyridin-2-yl)oxy)piperidin-1-yl)-2-(2,4-difluorophenyl)-1-(1H-1,2,4-triazol-1-yl)butan-2-ol], the MIC80 was at most 0.015 µg/mL.

Consider `C[C@@H](N1CCC(Oc2ncc(F)cn2)CC1)[C@](O)(Cn1cncn1)c1ccc(F)cc1F` [Example 30, (2R,3R)-2-(2,4-difluorophenyl)-3-(4-((5-fluoropyrimidin-2-yl)oxy)piperidin-1-yl)-1-(1H-1,2,4-triazol-1-yl)butan-2-ol], for which the MIC80 was at most 0.015 µg/mL.

As for `C[C@@H](N1CCC(Nc2ccccc2)CC1)[C@](O)(Cn1cncn1)c1ccc(F)cc1F` [Example 35, (2R,3R)-2-(2,4-difluorophenyl)-3-(4-(phenylamino)piperidin-1-yl)-1-(1H-1,2,4-triazol-1-yl)butan-2-ol], the MIC80 was at most 0.015 µg/mL.

On to `C[C@@H](N1CCC(Nc2ccc(F)cc2)CC1)[C@](O)(Cn1cncn1)c1ccc(F)cc1F` [Example 38, (2R,3R)-2-(2,4-difluorophenyl)-3-(4-((4-fluorophenyl)amino)piperidin-1-yl)-1-(1H-1,2,4-triazol-1-yl)butan-2-ol], for which the MIC80 is at most 0.015 µg/mL.

Regarding `C[C@@H](N1CCC(Nc2ccc(C(F)(F)F)cc2)CC1)[C@](O)(Cn1cncn1)c1ccc(F)cc1F` [Example 46, (2R,3R)-2-(2,4-difluorophenyl)-1-(1H-1,2,4-triazol-1-yl)-3-(4-((4-(trifluoromethyl)phenyl)amino)piperidin-1-yl)butan-2-ol], the MIC80 is at most 0.015 µg/mL.

On to `C[C@@H](N1CCC(Nc2ccc(C#N)cc2)CC1)[C@](O)(Cn1cncn1)c1ccc(F)cc1F` [Example 49, 4-((1-((2R,3R)-3-(2,4-difluorophenyl)-3-hydroxy-4-(1H-1,2,4-triazol-1-yl)butan-2-yl)piperidin-4-yl)amino)benzonitrile], for which the MIC80 was at most 0.015 µg/mL.

On to `C[C@@H](N1CCC(Nc2ncc(C(F)(F)F)cc2Cl)CC1)[C@](O)(Cn1cncn1)c1ccc(F)cc1F` [Example 60, (2R,3R)-3-(4-((3-chloro-5-(trifluoromethyl)pyridin-2-yl)amino)piperidin-1-yl)-2-(2,4-difluorophenyl)-1-(1H-1,2,4-triazol-1-yl)butan-2-ol], for which the MIC80 was at most 0.015 µg/mL.

Consider `C[C@@H](N1CCC(Nc2ncccn2)CC1)[C@](O)(Cn1cncn1)c1ccc(F)cc1F` [Example 62, (2R,3R)-2-(2,4-difluorophenyl)-3-(4-(pyrimidin-2-ylamino)piperidin-1-yl)-1-(1H-1,2,4-triazol-1-yl)butan-2-ol], for which the MIC80 is at most 0.015 µg/mL.

With `C[C@@H](N1CCC(Nc2ncc(Br)cn2)CC1)[C@](O)(Cn1cncn1)c1ccc(F)cc1F` [Example 64, (2R,3R)-3-(4-((5-bromopyrimidin-2-yl)-amino)piperidin-1-yl)-2-(2,4-difluorophenyl)-1-(1H-1,2,4-triazol-1-yl)butan-2-ol], the MIC80 was at most 0.015 µg/mL.

In the case of `C[C@@H](N1CCC(N(C)c2ccccc2)CC1)[C@](O)(Cn1cncn1)c1ccc(F)cc1F` [Example 67, (2R,3R)-2-(2,4-difluorophenyl)-3-(4-(methyl(phenyl)amino)piperidin-1-yl)-1-(1H-1,2,4-triazol-1-yl)butan-2-ol], the MIC80 was at most 0.015 µg/mL.

Turning to `C[C@@H](N1CCC(N(C)c2ccc(F)cc2)CC1)[C@](O)(Cn1cncn1)c1ccc(F)cc1F` [Example 70, (2R,3R)-2-(2,4-difluorophenyl)-3-(4-((4-fluorophenyl)(methyl)amino)piperidin-1-yl)-1-(1H-1,2,4-triazol-1-yl)butan-2-ol], the MIC80 is at most 0.015 µg/mL.

For the compound `C[C@@H](N1CCC(N(C)c2ccc(Cl)cc2)CC1)[C@](O)(Cn1cncn1)c1ccc(F)cc1F` [Example 73, (2R,3R)-3-(4-((4-chlorophenyl)(methyl)amino)piperidin-1-yl)-2-(2,4-difluorophenyl)-1-(1H-1,2,4-triazol-1-yl)butan-2-ol], the MIC80 is at most 0.015 µg/mL.

With `C[C@@H](N1CCC(N(C)c2ccc(C(F)(F)F)cc2)CC1)[C@](O)(Cn1cncn1)c1ccc(F)cc1F` [Example 79, (2R,3R)-2-(2,4-difluorophenyl)-3-(4-(methyl(4-(trifluoromethyl)phenyl)amino)piperidin-1-yl)-1-(1H-1,2,4-triazol-1-yl)butan-2-ol], the MIC80 is at most 0.015 µg/mL.

Consider `C[C@@H](N1CCC(N(C)c2ccc(C#N)cc2)CC1)[C@](O)(Cn1cncn1)c1ccc(F)cc1F` [Example 82, 4-((1-((2R,3R)-3-(2,4-difluorophenyl)-3-hydroxy-4-(1H-1,2,4-triazol-1-yl)butan-2-yl)piperidin-4-yl)(methyl)amino)benzonitrile], for which the MIC80 was at most 0.015 µg/mL.

`C[C@@H](OC1CCN(c2ncccn2)CC1)[C@](O)(Cn1cncn1)c1ccc(F)cc1F` [Example 89, (2R,3R)-2-(2,4-difluorophenyl)-3-((1-(pyrimidin-2-yl)piperidin-4-yl)oxy)-1-(1H-1,2,4-triazol-1-yl)butan-2-ol]: the MIC80 was at most 0.015 µg/mL.

In the case of `C[C@@H](OC1CCN(c2ccccc2)CC1)[C@](O)(Cn1cncn1)c1ccc(F)cc1F` [Example 90, (2R,3R)-2-(2,4-difluorophenyl)-3-((1-phenylpiperidin-4-yl)oxy)-1-(1H-1,2,4-triazol-1-yl)butan-2-ol], the MIC80 is at most 0.015 µg/mL.

Take `C[C@@H](OC1CCN(c2ccc(F)cc2)CC1)[C@](O)(Cn1cncn1)c1ccc(F)cc1F` [Example 93, (2R,3R)-2-(2,4-difluorophenyl)-3-((1-(4-fluorophenyl)piperidin-4-yl)oxy)-1-(1H-1,2,4-triazol-1-yl)butan-2-ol]: the MIC80 is at most 0.015 µg/mL.

Turning to `C[C@@H](OC1CCN(c2ccc(Cl)cc2)CC1)[C@](O)(Cn1cncn1)c1ccc(F)cc1F` [Example 96, (2R,3R)-3-((1-(4-chlorophenyl)piperidin-4-yl)oxy)-2-(2,4-difluorophenyl)-1-(1H-1,2,4-triazol-1-yl)butan-2-ol], the MIC80 is at most 0.015 µg/mL.

On to `C[C@@H](OC1CCN(c2ccc(C(F)(F)F)cc2)CC1)[C@](O)(Cn1cncn1)c1ccc(F)cc1F` [Example 102, (2R,3R)-2-(2,4-difluorophenyl)-1-(1H-1,2,4-triazol-1-yl)-3-((1-(4-(trifluoromethyl)phenyl)piperidin-4-yl)oxy)butan-2-ol], for which the MIC80 is at most 0.015 µg/mL.

`C[C@@H](OC1CCN(c2ccc(C#N)cc2)CC1)[C@](O)(Cn1cncn1)c1ccc(F)cc1F` [Example 105, 4-(4-(((2R,3R)-3-(2,4-difluorophenyl)-3-hydroxy-4-(1H-1,2,4-triazol-1-yl)butan-2-yl)oxy)piperidin-1-yl)benzonitrile]: the MIC80 was at most 0.015 µg/mL.

Turning to `C[C@@H](OC1CCN(c2ccc(F)cn2)CC1)[C@](O)(Cn1cncn1)c1ccc(F)cc1F` [Example 114, (2R,3R)-2-(2,4-difluorophenyl)-3-((1-(5-fluoropyridin-2-yl)piperidin-4-yl)oxy)-1-(1H-1,2,4-triazol-1-yl)butan-2-ol], the MIC80 is at most 0.015 µg/mL.

As for `C[C@@H](OC1CCN(c2ccc(Cl)cn2)CC1)[C@](O)(Cn1cncn1)c1ccc(F)cc1F` [Example 115, (2R,3R)-3-((1-(5-chloropyridin-2-yl)piperidin-4-yl)oxy)-2-(2,4-difluorophenyl)-1-(1H-1,2,4-triazol-1-yl)butan-2-ol], the MIC80 was at most 0.015 µg/mL.

Take `Cc1cc(C(F)(F)F)cnc1N1CCC(O[C@H](C)[C@](O)(Cn2cncn2)c2ccc(F)cc2F)CC1` [Example 116, (2R,3R)-2-(2,4-difluorophenyl)-3-((1-(3-methyl-5-(trifluoromethyl)pyridin-2-yl)piperidin-4-yl)oxy)-1-(1H-1,2,4-triazol-1-yl)butan-2-ol]: the MIC80 is at most 0.015 µg/mL.

Broadly, the MIC80 is the lowest concentration that inhibits either 80% of growth or 80% of the strains tested, depending on the study.
